We go through one compound from patent US20240261319A1, “ANTI-FUNGAL COMPOSITION DERIVED FROM HESPERALOE” (Kimberly-Clark Worldwide, Inc., priority 2021, published 2024).

Structures are written as SMILES. Converted amounts (≈) assume the structure as drawn.

For orientation: MIC means the lowest concentration found to suppress growth. Read a high MIC as weaker potency.

For the assay, the system named is Candida albicans. In words: Minimum inhibitory concentration (MIC) testing, two-fold broth dilution in YPD, OD620. Format: cell-based. As to conditions: C. albicans (ATCC) in YPD broth, two-fold dilutions starting at 200, 30° C., 18-24 hours. The method, then: Candida albicans, was purchased from ATCC. Thirty-five samples derived from KC Hesperaloe funifera, crude extracts and selected fractions (Table 1) were screened for the inhibition of growth of candida.
Minimum inhibitory concentration (MIC) testing was performed. Two-fold dilutions of sample prepared in C. albicans growth medium (Yeast Peptone Dextrose, YPD) broth, starting at 200 µg/mL. Then inoculum added and incubated at 30° C. for 18-24 hours, and OD620 was determined. T-test was used to determine statistically significant decreases in growth ([…]). Controls included Ketoconazole (50 µg/mL, Keto50), Neg (media with DMSO only, no inoculum), Pos (media with DMSO and inoculum), and YPD (broth only). In wells with decreased growth, wells were mixed by pipetting, and […] samples were plated on YPD agar to determine whether viable C. albicans were present, as an estimation of minimum fungicidal concentration (MFC).

In turn, `CC(=O)N1CCN(c2ccc(OCC3COC(Cn4ccnc4)(c4ccc(Cl)cc4Cl)O3)cc2)CC1` (stereo not shown) [Ketoconazole] registered an MIC of 25 mg/mL (≈ 47 mM).
